Counter-ions that a name gives are not always drawn.
Key:
PI3Kδ (p110δ/p85α) [1] = target: T1, PI3Kδ (p110δ/p85α) (Homo sapiens (Human), UniProt O00329); assay: PI3Kδ Scintillation Proximity Assay (Assay A3); type: biochemical; settings: column b, Assay A3 (SPA), 20 μM ATP
Source text: [γ-^33P]ATP (10 mCi/mL) was purchased from Perkin-Elmer (Waltham, Mass.). Lipid kinase substrate, D-myo-Phosphatidylinositol 4,5-bisphosphate (PtdIns(4,5)P2)D (+)-sn-1,2-di-O-octanoylglyceryl, 3-O-phospho linked (PIP2), CAS 204858-53-7, was purchased from Echelon Biosciences (Salt Lake City, Utah). PI3Kδ (p110δ/p85α) was purchased from Millipore (Bedford, Mass.). ATP, MgCl2, DTT, EDTA, MOPS and CHAPS were purchased from Sigma-Aldrich (St. Louis, Mo.). Wheat Germ Agglutinin (WGA) YSi SPA Scintillation Beads was purchased from GE healthcare life sciences (Piscataway, N.J.).
The kinase reaction was conducted in polystyrene 384-well matrix white plate from Thermo Fisher Scientific in a final volume of 25 μL. Inhibitors were first diluted serially in DMSO and added to the plate wells before the addition of other reaction components. The final concentration of DMSO in the assay was 0.5%. The PI3K assays were carried out at room temperature in 20 mM MOPS, pH 6.7, 10 mM MgCl2, 5 mM DTT and CHAPS 0.03%. Reactions were initiated by the addition of ATP, the final reaction mixture consisted of 20 μM PIP2, 20 μM ATP, 0.2 μCi [γ-^33P] ATP, 4 nM PI3Kδ. Reactions were incubated for 210 min and terminated by the addition of 40 μL SPA beads suspended in quench buffer: 150 mM potassium phosphate pH 8.0, 20% glycerol. 25 mM EDTA, 400 μM ATP. The final concentration of SPA beads was 1.0 mg/mL. After the plate sealing, plates were shaken overnight at room temperature and centrifuged at 1800 rpm for 10 minutes, the radioactivity of the product was determined by scintillation counting on Topcount (Perkin-Elmer). IC50 determination was performed by fitting the curve of percent control activity versus the log of the inhibitor concentration using the GraphPad Prism 3.0 software.

[2] = test system: Pfeiffer cell line (diffuse large B cell lymphoma); assay: Pfeiffer Cell Proliferation Assay; type: cell-based; settings: 3-4 days, [3H]-thymidine incorporation
Procedure: Pfeiffer cell line (diffuse large B cell lymphoma) was purchased from ATCC (Manassas, Va.) and maintained in the culture medium recommended (RPMI and 10% FBS). To measure the anti-proliferation activity of the PI3Kδ submittals, the Pfeiffer cells were plated with the culture medium (2×10^3 cells/well/per 200 μl) into 96-well ultra-low binding plates (Corning, Corning, N.Y.), in the presence or absence of a concentration range of test compounds. After 3-4 days, [^3H]-thymidine (1 μCi/well) (PerkinElmer, Boston, Mass.) in PBS was then added to the cell culture for an additional 12 hrs before the incorporated radioactivity was separated by filtration with water through GF/B filters (Packard Bioscience, Meriden, Conn.) and measured by liquid scintillation counting with a TopCount (Packard Bioscience). See Table 3 for data related to compounds of the invention.

PI3Kδ (p110δ/p85α) [3] = target: T1, PI3Kδ (p110δ/p85α); assay: AlphaScreen Assay for PI3Kδ (Assay A1); type: biochemical; settings: column a, 20 μM ATP
Source text: PI3-Kinase luminescent assay kit including lipid kinase substrate, D-myo-phosphatidylinositol 4,5-bisphosphate (PtdIns(4,5)P2)D (+)-sn-1,2-di-O-octanoylglyceryl, 3-O-phospho linked (PIP2), biotinylated I(1,3,4,5)P4, PI(3,4,5)P3 Detector Protein, was purchased from Echelon Biosciences (Salt Lake City, Utah). AlphaScreen™ GST Detection Kit including donor and acceptor beads was purchased from PerkinElmer Life Sciences (Waltham, Mass.). PI3Kδ (p110δ/p85α) was purchased from Millipore (Bedford, Mass.). ATP, MgCb, DTT, EDTA, HEPES and CHAPS were purchased from Sigma-Aldrich (St. Louis, Mo.).
AlphaScreen™ Assay for PI3Kδ
The kinase reaction was conducted in 384-well REMP plate from Thermo Fisher Scientific in a final volume of 40 μL. Inhibitors were first diluted serially in DMSO and added to the plate wells before the addition of other reaction components. The final concentration of DMSO in the assay was 2%. The PI3K assays were carried out at room temperature in 50 mM HEPES, pH 7.4, 5 mM MgCl2, 50 mM NaCl, 5 mM DTT and CHAPS 0.04%. Reactions were initiated by the addition of ATP, the final reaction mixture consisted of 20 μM PIP2, 20 μM ATP, 1.2 nM PI3Kδ were incubated for 20 min. 10 μL of reaction mixture was then transferred to 5 μL 50 nM biotinylated I(1,3,4,5)P4 in quench buffer: 50 mM HEPES pH 7.4, 150 mM NaCl, 10 mM EDTA, 5 mM DTT, 0.1% Tween-20, followed with the addition of 10 μL AlphaScreen™ donor and acceptor beads suspended in quench buffer containing 25 nM PI(3,4,5)P3 detector protein. The final concentration of both donor and acceptor beads is […]. After plate sealing, the plate was incubated in a dark location at room temperature for 2 hours. The activity of the product was determined on Fusion-alpha microplate reader (Perkin-Elmer). IC50 determination was performed by fitting the curve of percent control activity versus the log of the inhibitor concentration using the GraphPad Prism 3.0 software.

T1 sequence (O00329 whole entry, species assumed): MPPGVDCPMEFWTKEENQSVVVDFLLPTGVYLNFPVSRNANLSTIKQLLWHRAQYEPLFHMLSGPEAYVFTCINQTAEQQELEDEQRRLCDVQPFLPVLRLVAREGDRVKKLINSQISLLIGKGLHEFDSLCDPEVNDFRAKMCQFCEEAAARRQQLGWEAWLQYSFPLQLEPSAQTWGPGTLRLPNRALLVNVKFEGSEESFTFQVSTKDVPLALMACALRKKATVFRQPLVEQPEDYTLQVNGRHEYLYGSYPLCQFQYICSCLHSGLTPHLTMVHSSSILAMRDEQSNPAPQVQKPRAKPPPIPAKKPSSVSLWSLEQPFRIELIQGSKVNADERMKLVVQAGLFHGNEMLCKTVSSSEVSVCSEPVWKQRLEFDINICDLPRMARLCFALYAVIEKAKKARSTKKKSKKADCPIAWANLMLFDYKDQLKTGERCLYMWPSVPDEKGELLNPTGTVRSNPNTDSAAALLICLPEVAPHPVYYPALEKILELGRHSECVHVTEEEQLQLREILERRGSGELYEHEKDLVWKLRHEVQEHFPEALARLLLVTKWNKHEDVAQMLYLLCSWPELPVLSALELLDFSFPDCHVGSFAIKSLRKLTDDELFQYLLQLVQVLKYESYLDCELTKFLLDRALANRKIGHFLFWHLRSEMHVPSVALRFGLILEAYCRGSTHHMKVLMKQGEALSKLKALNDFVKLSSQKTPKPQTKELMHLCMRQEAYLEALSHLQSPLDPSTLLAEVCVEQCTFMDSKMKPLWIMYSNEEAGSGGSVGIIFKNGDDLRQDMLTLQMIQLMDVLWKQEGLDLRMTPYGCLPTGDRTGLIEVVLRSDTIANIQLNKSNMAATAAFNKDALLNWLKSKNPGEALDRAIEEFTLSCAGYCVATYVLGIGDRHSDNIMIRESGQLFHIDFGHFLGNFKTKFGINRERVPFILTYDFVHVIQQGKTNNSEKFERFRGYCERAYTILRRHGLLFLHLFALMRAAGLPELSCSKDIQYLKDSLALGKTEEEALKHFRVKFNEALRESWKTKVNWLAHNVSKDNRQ
T1 sequence (P27986 whole entry partner, species assumed): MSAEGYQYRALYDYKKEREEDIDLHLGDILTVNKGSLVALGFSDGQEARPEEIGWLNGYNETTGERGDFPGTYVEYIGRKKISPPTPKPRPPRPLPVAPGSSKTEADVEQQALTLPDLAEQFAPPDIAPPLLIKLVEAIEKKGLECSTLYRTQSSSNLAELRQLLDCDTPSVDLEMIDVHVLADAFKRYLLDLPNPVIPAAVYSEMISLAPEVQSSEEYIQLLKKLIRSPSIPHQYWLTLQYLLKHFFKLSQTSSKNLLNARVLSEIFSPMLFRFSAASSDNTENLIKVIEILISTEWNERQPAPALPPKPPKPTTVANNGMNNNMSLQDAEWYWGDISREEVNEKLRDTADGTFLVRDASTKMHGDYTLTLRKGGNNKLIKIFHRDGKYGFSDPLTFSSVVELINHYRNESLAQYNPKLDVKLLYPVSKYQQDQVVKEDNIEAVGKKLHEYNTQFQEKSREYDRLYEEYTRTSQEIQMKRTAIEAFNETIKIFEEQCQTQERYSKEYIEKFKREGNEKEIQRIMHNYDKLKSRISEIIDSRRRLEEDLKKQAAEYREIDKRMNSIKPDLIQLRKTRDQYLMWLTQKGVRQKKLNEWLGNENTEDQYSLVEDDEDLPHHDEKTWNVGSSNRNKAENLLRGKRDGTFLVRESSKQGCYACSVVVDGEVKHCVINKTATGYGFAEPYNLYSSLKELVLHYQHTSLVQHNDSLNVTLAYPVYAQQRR

Compound	IC50 (PI3Kδ (p110δ/p85α) [1])	IC50 ([2]; Homo sapiens, Pfeiffer)	IC50 (PI3Kδ (p110δ/p85α) [3])	IC50 [2]	IC50 ([2]; trifluoroacetic acid salt)
Cc1cccc2nc(C(C)Nc3nc(N)nc4[nH]cnc34)c(-c3cccc(F)c3)c(=O)n12 (centres unmarked) [Example 73, 2-{1-[(2-Amino-9H-purin-6-yl)amino]ethyl}-3-(3-fluorophenyl)-6-methyl-4H-pyrido[1,2-a]pyrimidin-4-one trifluoroacetic acid salt]	< 50 nM	< 50 nM			
CCC(Nc1ncnc2[nH]cnc12)c1nc2cccc(C)n2c(=O)c1-c1cn[nH]c1 (centres unmarked) [Example 7, 6-methyl-2-[1-(9H-purin-6-ylamino)propyl]-3-(1H-pyrazol-4-yl)-4H-pyrido[1,2-a]pyrimidin-4-one]	50 to 100 nM		100 to 500 nM		
Cc1cccc2nc(C(C)Nc3ncnc4[nH]cnc34)c(-c3cccc(F)c3)c(=O)n12 (centres unmarked) [Example 70, 3-(3-Fluorophenyl)-6-methyl-2-[1-(9H-purin-6-ylamino)ethyl]-4H-pyrido[1,2-a]pyrimidin-4-one trifluoroacetic acid salt]	50 to 100 nM	< 50 nM			
Cc1csc2nc([C@H](C)Nc3ncnc4[nH]cnc34)c(-c3ccccc3Cl)c(=O)n12 (single isomer, unassigned) [43 Second peak]				< 50 nM	
CCC(Nc1ncnc2[nH]cnc12)c1nc2cccc(C)n2c(=O)c1-c1cccnc1F (centres unmarked) [Example 6, 3-(2-fluoropyridin-3-yl)-6-methyl-2-[1-(9H-purin-6-ylamino)propyl]-4H-pyrido[1,2-a]pyrimidin-4-one]	100 to 500 nM		100 to 500 nM		
Cc1csc2nc(C(C)Nc3ncnc4[nH]cnc34)c(-c3ccccc3)c(=O)n12 (centres unmarked) [Example 8, 3-methyl-6-phenyl-7-[1-(9H-purin-6-ylamino)ethyl]-5H-[1,3]thiazolo[3,2-a]pyrimidin-5-one]	< 50 nM		50 to 100 nM		
Cc1csc2nc(C(C)Nc3ncnc4[nH]cnc34)c(-c3ccccn3)c(=O)n12 (centres unmarked) [Example 14, 3-methyl-7-[1-(9H-purin-6-ylamino)ethyl]-6-pyridin-2-yl-5H-[1,3]thiazolo[3,2-a]pyrimidin-5-one]	50 to 100 nM		50 to 100 nM		
CCC(Nc1ncnc2[nH]cnc12)c1nc2cccc(C)n2c(=O)c1-c1cncc(F)c1 (centres unmarked) [Example 3, 3-(5-fluoropyridin-3-yl)-6-methyl-2-[1-(9H-purin-6-ylamino)propyl]-4H-pyrido[1,2-a]pyrimidin-4-one]	100 to 500 nM		100 to 500 nM		
Cc1csc2nc([C@H](C)Nc3nc(N)nc4[nH]cnc34)c(-c3ccccc3Cl)c(=O)n12 (single isomer, unassigned) [39 Second peak]				< 50 nM	
Cc1cccc2nc(C(C)Nc3ncnc4[nH]cnc34)c(-c3cccc(F)c3)c(=O)n12 (single isomer, unassigned) [Example 72, 3-(3-Fluorophenyl)-6-methyl-2-[1-(9H-purin-6-ylamino)ethyl]-4H-pyrido[1,2-a]pyrimidin-4-one trifluoroacetic acid salt]	> 500 nM				500 to 1000 nM
CCC(Nc1ncnc2[nH]cnc12)c1nc2cccc(C)n2c(=O)c1-c1cccc(F)c1 (centres unmarked) [Example 4, 3-(3-fluorophenyl)-6-methyl-2-[1-(9H-purin-6-ylamino)propyl]-4H-pyrido[1,2-a]pyrimidin-4-one]	50 to 100 nM		100 to 500 nM		
Cc1cccc2nc(C(C)n3cnc4c(N)ncnc43)c(-c3ccccc3)c(=O)n12 (centres unmarked) [Example 1, 2-[1-(6-amino-9H-purin-9-yl)ethyl]-6-methyl-3-phenyl-4H-pyrido[1,2-a]pyrimidin-4-one]	100 to 500 nM		100 to 500 nM		
CCC(Nc1ncnc2[nH]cnc12)c1nc2cccc(C)n2c(=O)c1-c1ccccc1 (centres unmarked) [Example 2, 6-methyl-3-phenyl-2-[1-(9H-purin-6-ylamino)propyl]-4H-pyrido[1,2-a]pyrimidin-4-one]	< 50 nM		50 to 100 nM		
CCC(Nc1ncnc2[nH]cnc12)c1nc2cccc(C)n2c(=O)c1-c1cc(F)cc(F)c1 (centres unmarked) [Example 5, 3-(3,5-difluorophenyl)-6-methyl-2-[1-(9H-purin-6-ylamino)propyl]-4H-pyrido[1,2-a]pyrimidin-4-one]	50 to 100 nM		100 to 500 nM		

Reference: US9975907B2, “Pyrimidinones as PI3K inhibitors” (Incyte Corporation, priority 2009, dated 2018)
